Data published in the supplement of paper PMC13380429.

Columns and labels:
A549-ACE2 [1] = test: phospholipidosis EC50; higher = less potent phospholipidosis inducer
[2] = tested on: A549-ACE2 infected with SARS-CoV-2; test: cell count relative to DMSO; higher = less toxic; conditions: 24 h
U2OS [3] = test: cell viability relative to DMSO; higher = less toxic; conditions: 72 h
Caco-2 [4] = test: as above; conditions: 72 h
Vero E6 [5] = test: as above; conditions: 72 h
HepG2 [6] = test: as above; conditions: 72 h
Calu-3 [7] = test: as above; conditions: 72 h
A549-ACE2 [8] = test: drug-induced phospholipidosis relative to tamoxifen; higher = more phospholipidosis
U2OS [9] = test: drug sensitivity score (DSS) for viability; higher = more toxic; extreme values may be limits of the assay; conditions: 72 h
Caco-2 [10] = test: as above; conditions: 72 h
Vero E6 [11] = test: as above; conditions: 72 h
HepG2 [12] = test: as above; conditions: 72 h
Calu-3 [13] = test: as above; conditions: 72 h
[14] = tested on: A549-ACE2 infected with SARS-CoV-2; test: SARS-CoV-2 infection rate relative to DMSO; higher = more infection; conditions: 24 h
U2OS [15] = test: relative viability EC50 (midpoint between 100% and the lowest measured viability); higher = less toxic; conditions: 72 h
Caco-2 [16] = test: as above; conditions: 72 h
Vero E6 [17] = test: as above; conditions: 72 h
HepG2 [18] = test: as above; conditions: 72 h
Calu-3 [19] = test: as above; conditions: 72 h
[20] = tested on: A549-ACE2 infected with SARS-CoV-2; test: morphology score (similarity to uninfected cells); higher = more like uninfected cells; conditions: 24 h

CCOC(=O)C1=C(COCCN)NC(C)=C(C(=O)OC)C1c1ccccc1Cl (centres undefined) [amlodipine]
Conditions	SARS-CoV-2 infection rate [%]	cell count [%]	cell viability [%]	morphology score	phospholipidosis EC50 [µM]
A549-ACE2 [1], 24 h	–	–	–	–	10.9
Caco-2 [4], 1 nM	–	–	97.9	–	–
Caco-2 [4], 10 nM	–	–	102	–	–
Caco-2 [4], 100 nM	–	–	98.2	–	–
Caco-2 [4], 1000 nM	–	–	93.5	–	–
Caco-2 [4], 10000 nM	–	–	94.2	–	–
Calu-3 [7], 1 nM	–	–	93.6	–	–
Calu-3 [7], 10 nM	–	–	104	–	–
Calu-3 [7], 100 nM	–	–	94.1	–	–
Calu-3 [7], 1000 nM	–	–	102	–	–
Calu-3 [7], 10000 nM	–	–	93.9	–	–
HepG2 [6], 1 nM	–	–	97.7	–	–
HepG2 [6], 10 nM	–	–	98.1	–	–
HepG2 [6], 100 nM	–	–	91.2	–	–
HepG2 [6], 1000 nM	–	–	99.2	–	–
HepG2 [6], 10000 nM	–	–	96.4	–	–
U2OS [3], 1 nM	–	–	94.8	–	–
U2OS [3], 10 nM	–	–	102	–	–
U2OS [3], 100 nM	–	–	96.6	–	–
U2OS [3], 1000 nM	–	–	101	–	–
U2OS [3], 10000 nM	–	–	97.5	–	–
Vero E6 [5], 1 nM	–	–	96.7	–	–
Vero E6 [5], 10 nM	–	–	90.2	–	–
Vero E6 [5], 100 nM	–	–	91.1	–	–
Vero E6 [5], 1000 nM	–	–	84.8	–	–
Vero E6 [5], 10000 nM	–	–	96.1	–	–
[2], 0.3 µM	–	96	–	–	–
[2], 3 µM	–	112	–	–	–
[2], 10 µM	–	119	–	–	–
[2], 30 µM	–	91	–	–	–
[14], 0.3 µM	107	–	–	–	–
[14], 3 µM	79	–	–	–	–
[14], 10 µM	23	–	–	–	–
[14], 30 µM	30	–	–	–	–
[20], 0.3 µM	–	–	–	-0.27	–
[20], 3 µM	–	–	–	0.49	–
[20], 10 µM	–	–	–	0.92	–
[20], 30 µM	–	–	–	0.35	–

drug-induced phospholipidosis [%], A549-ACE2 [8]
Conditions	0.3 µM	0.833333 µM	3.33333 µM	6.66667 µM	10 µM	30 µM
24 h	4.07	-2.24	14.4	39.7	58.4	105
48 h	3.72	0.34	10.8	17.5	37	187
72 h	5.62	-0.058	6.8	13.1	21	181

Conditions	drug sensitivity score	relative viability EC50 [µM]
Caco-2 [10]	0	–
Caco-2 [16]	–	> 10
Calu-3 [13]	0	–
Calu-3 [19]	–	> 10
HepG2 [12]	0	–
HepG2 [18]	–	> 10
U2OS [9]	0	–
U2OS [15]	–	> 10
Vero E6 [11]	0	–
Vero E6 [17]	–	> 10

CN1CCN(C2CCN(C(=O)Nc3cc(Oc4ccc(NC(=O)C5(C(=O)Nc6ccc(F)cc6)CC5)c(F)c4)ccn3)CC2)CC1 [golvatinib]
Conditions	SARS-CoV-2 infection rate [%]	cell count [%]	cell viability [%]	morphology score	phospholipidosis EC50 [µM]
A549-ACE2 [1], 24 h	–	–	–	–	4.22
A549-ACE2 [1], 48 h	–	–	–	–	9.68
A549-ACE2 [1], 72 h	–	–	–	–	11.3
Caco-2 [4], 1 nM	–	–	102	–	–
Caco-2 [4], 10 nM	–	–	89.1	–	–
Caco-2 [4], 100 nM	–	–	95	–	–
Caco-2 [4], 1000 nM	–	–	87.9	–	–
Caco-2 [4], 10000 nM	–	–	44.2	–	–
Calu-3 [7], 1 nM	–	–	92.4	–	–
Calu-3 [7], 10 nM	–	–	105	–	–
Calu-3 [7], 100 nM	–	–	97.1	–	–
Calu-3 [7], 1000 nM	–	–	106	–	–
Calu-3 [7], 10000 nM	–	–	63.4	–	–
HepG2 [6], 1 nM	–	–	97.8	–	–
HepG2 [6], 10 nM	–	–	95.5	–	–
HepG2 [6], 100 nM	–	–	102	–	–
HepG2 [6], 1000 nM	–	–	77.6	–	–
HepG2 [6], 10000 nM	–	–	1.4	–	–
U2OS [3], 1 nM	–	–	96.7	–	–
U2OS [3], 10 nM	–	–	102	–	–
U2OS [3], 100 nM	–	–	97.6	–	–
U2OS [3], 1000 nM	–	–	104	–	–
U2OS [3], 10000 nM	–	–	61.2	–	–
Vero E6 [5], 1 nM	–	–	95.3	–	–
Vero E6 [5], 10 nM	–	–	97.5	–	–
Vero E6 [5], 100 nM	–	–	95	–	–
Vero E6 [5], 1000 nM	–	–	91.3	–	–
Vero E6 [5], 10000 nM	–	–	59.6	–	–
[2], 0.1 µM	–	94	–	–	–
[2], 0.3 µM	–	101	–	–	–
[2], 1 µM	–	103	–	–	–
[2], 3 µM	–	110	–	–	–
[14], 0.1 µM	107	–	–	–	–
[14], 0.3 µM	104	–	–	–	–
[14], 1 µM	95	–	–	–	–
[14], 3 µM	50	–	–	–	–
[20], 0.1 µM	–	–	–	-0.16	–
[20], 0.3 µM	–	–	–	-0.14	–
[20], 1 µM	–	–	–	0.12	–
[20], 3 µM	–	–	–	0.64	–

drug-induced phospholipidosis [%], A549-ACE2 [8]
Conditions	0.3 µM	0.833333 µM	3.33333 µM	6.66667 µM	10 µM	30 µM
24 h	1.8	1.61	20.9	69	79.8	76.4
48 h	3.53	3.1	11.1	42.2	75.9	–
72 h	5.78	3.08	10.8	36.2	67.2	–

Conditions	drug sensitivity score	relative viability EC50 [µM]
Caco-2 [10]	5	–
Caco-2 [16]	–	1.66
Calu-3 [13]	1.4	–
HepG2 [12]	9	–
HepG2 [18]	–	1.63
U2OS [9]	1.6	–
Vero E6 [11]	3.4	–
